Data taken from article PMC10242237 (Scientific Reports, 2023).

Columns and labels:
SARS-CoV-2 PL^pro = SARS-CoV-2 PL^pro (Severe acute respiratory syndrome coronavirus 2, UniProt P0DTD1); test: biochemical; conditions: for inhibition at 1 µM: 0.5 h, read-out: inhibition [%] SARS-CoV-2 PLpro; for inhibition [%] SARS-CoV-2 PLpro: [E] = 100 nM, [I] = 1 µM, [S] = 10 µM
SARS-CoV-2 M^pro = SARS-CoV-2 M^pro (Severe acute respiratory syndrome coronavirus 2, UniProt P0DTD1); test: biochemical; conditions: for inhibition at 0.1 µM: read-out: inhibition [%] SARS-CoV-2 Mpro, [I] = 100 nM; for inhibition at 1 µM: read-out: inhibition [%] SARS-CoV-2 Mpro, [I] = 1 µM
[1] = molecular target: SARS-CoV-2 nsp14 N7-MTase (Severe acute respiratory syndrome coronavirus 2, UniProt P0DTD1); test: Py-FLINT fluorescence assay of nsp14 N7-MTase; type: biochemical; conditions: for SARS-CoV-2 nsp14 Hill coefficient p: four-parameter dose-response fit, variable Hill slope
Description: To determine their IC50 values, we used the previously described fluorescence assay Py-FLINT[42],[67]. To this end, the Py-FLINT probe (1 μM) was incubated with SAM cosubstrate (20 μM), nsp14 enzyme (40 nM), and half-log inhibitor dilutions in 50 mM Tris–HCl pH 7.5 buffer at 30 °C. The reaction progress was monitored in 96-well cells by registering the fluorescence intensity signal with a 1-min time interval. Using the initial reaction course, the values of initial rates V were calculated. To calculate IC50 values from the obtained dependences of initial rates versus inhibitor concentration, we fitted a four-parameter dose–response equation, assuming a variable Hill slope p (Table 3, Fig. S2).
The Py-FLINT probe (1 μM) was incubated with SAM cosubstrate (20 μM), nsp14 (40 nM), and an inhibitor (half-log dilutions logCinh < − 2.5; 2 >). […] Initial rates V were calculated by fitting a linear curve to the first 10 points (10 min). To the obtained dependences V(Cinh) the following four-parameter dose–response equation was fitted:1 V/V0=A1+A2-A1/1+Cinh/IC50^p, where A1 and A2 are the bottom and top asymptotes, respectively; Cinh the inhibitor concentration; p is the Hill coefficient, and V/V0 is the ratio of the initial reaction rate with the inhibitor to that without the inhibitor. For curve fitting and IC50 calculations we used GraphPad Prism software.

Vero E6 cells = test: Cytotoxicity assay (XTT) in Vero E6 cells; type: cell-based; conditions: Vero E6 cells, three days, XTT
Description: (§1) Cytotoxicity was evaluated by incubating two-fold serial dilutions of each compound with Vero E6 cells.

SARS-CoV-2 [2] = test: Cytopathic effect (CPE)-based anti-SARS-CoV-2 assay in Vero E6 cells; conditions: read-out: EC50 CPE, three days, XTT
SARS-CoV-2 [3] = test: RNA reduction-based anti-SARS-CoV-2 assay (RT-qPCR) in Vero E6 cells; conditions: read-out: EC50 RNA, two days, RT-qPCR of medium
[4] = Cytotoxicity assay (XTT) in Vero E6 cells; type: cell-based; conditions: African green monkey; Vero E6 cells, three days, XTT; read-out: CC50
Description: as §1

| Structure (SMILES) | inhibition at 1 µM (SARS-CoV-2 PL^pro) [%] | inhibition at 0.1 µM (SARS-CoV-2 M^pro) [%] | inhibition [%] SARS-CoV-2 PLpro (SARS-CoV-2 PL^pro) [%] | inhibition at 1 µM (SARS-CoV-2 M^pro) [%] | IC50 [1] [µM] | CC50 (Vero E6 cells) [µM] | EC50 (SARS-CoV-2 [2]) [µM] | EC50 (SARS-CoV-2 [3]) [µM] | CC50 at 3 days [4] [µM] | melting point | SARS-CoV-2 nsp14 Hill coefficient p [1] |
| --- | --- | --- | --- | --- | --- | --- | --- | --- | --- | --- | --- |
| O=c1c2ccccc2[se]n1-c1ccc(C(F)(F)F)cc1 [Compound 9] | 48 ± 3.6 | 71 ± 9.3 |  |  |  |  |  |  |  |  |  |
| O=C(Nc1cccc(F)c1)c1ccccc1[Se][Se]c1ccccc1C(=O)Nc1cccc(F)c1 [Compound 27, bis[2-(3-fluorophenylcarbamoyl)]phenyl diselenide] |  | 44 ± 4.1 | 90.1 ± 5.4 | 100 | 0.18 ± 0.04 | > 50 | 0.7 ± 0.13 | 1.5 ± 0.15 |  |  |  |
| CCC(CC)COC(=O)[C@H](C)N[P@](=O)(OC[C@H]1O[C@@](C#N)(c2ccc3c(N)ncnn23)[C@H](O)[C@@H]1O)Oc1ccccc1 [Remdesivir, reference compound] |  |  |  |  |  |  | 0.1 ± 0.01 | 0.66 ± 0.06 | > 50 |  |  |
| COc1ccc(-n2[se]c3ccccc3c2=O)cc1OC [Compound 23] | 58 ± 1.9 | 60.6 ± 0.4 |  |  |  |  |  |  |  |  |  |
| O=C(Nc1ccc(C(F)(F)F)cc1)c1ccccc1[Se][Se]c1ccccc1C(=O)Nc1ccc(C(F)(F)F)cc1 [Compound 29] |  | 14 ± 2.4 | 61.3 ± 3.4 | 100 | 4.5 ± 1.3 | > 50 | 29 ± 3.5 |  |  |  |  |
| COc1cccc(NC(=O)c2ccccc2[Se][Se]c2ccccc2C(=O)Nc2cccc(OC)c2)c1 [Compound 28] |  | 37 ± 4.3 | 81.9 ± 0.8 | 100 | 0.58 ± 0.04 | > 50 | 7.6 ± 0.71 | 2.7 ± 0.23 |  |  |  |
| O=c1c2ccccc2[se]n1-c1ccc(I)cc1 [Compound 11] | 48 ± 2.1 | 71.6 ± 5.6 |  |  |  |  |  |  |  | 203 to 204 °C |  |
| O=C(Nc1ccc(Cl)cc1F)c1ccccc1[Se][Se]c1ccccc1C(=O)Nc1ccc(Cl)cc1F [Compound 30] |  | 27.4 | 75.1 ± 0.4 | 49.6 ± 2.7 | 11.5 ± 1.4 | > 50 | 1.1 ± 0.15 | 1.9 ± 0.1 |  |  |  |
| O=c1c2ccccc2[se]n1-c1ncccc1O [Compound 7, 2-(3-hydroxypyridin-2-yl)-1,2-benzisoselenazol-3(2H)-one] | 84.4 ± 2.1 | 55.9 ± 4.1 |  |  |  |  |  |  |  | 228 to 229 °C (dec.) | 4.08 ± 1.33 |
| O=c1c2ccccc2[se]n1-c1ccccc1[N+](=O)[O-] [Compound 6] |  | 38.5 ± 2.3 | 46.6 ± 2.3 |  |  |  |  |  |  |  |  |
| O=C(Nc1ccccc1F)c1ccccc1[Se][Se]c1ccccc1C(=O)Nc1ccccc1F [Compound 25] |  | 33 ± 5.5 | 82.1 ± 2.7 | 100 | 0.12 ± 0.01 | ~60 | 3.1 ± 0.36 | 1.9 ± 0.15 |  |  |  |
| Cc1ccccc1-n1[se]c2ccccc2c1=O [Compound 4] |  | 63.4 ± 2.7 | 55.8 ± 5.2 |  |  |  |  |  |  |  |  |
| Cc1c(Cl)cccc1-n1[se]c2ccccc2c1=O [Compound 21] | 58.3 ± 2.4 | 70.6 ± 1.4 |  |  |  |  |  |  |  | 282 to 283 °C |  |
| COc1ccc(NC(=O)c2ccccc2[Se][Se]c2ccccc2C(=O)Nc2ccc(OC)cc2OC)c(OC)c1 [Compound 31] |  | 50 ± 1 | 76.6 ± 2.4 | 100 | 0.91 ± 0.1 | > 50 | 7.1 ± 0.84 | 2.8 ± 0.31 |  |  |  |
| O=c1c2ccccc2[se]n1-c1ccc([N+](=O)[O-])cc1 [Compound 10] | 56.2 ± 4.2 | 82.9 ± 1.7 |  |  |  |  |  |  |  |  | 1.73 ± 0.35 |
| O=c1c2ccccc2[se]n1-c1ccccc1Br [Compound 3] | 59.2 ± 4.5 | 73.3 ± 4.5 |  |  |  |  |  |  |  |  | 3.12 ± 0.47 |
| O=c1c2ccccc2[se]n1-c1cc(Cl)ccc1Cl [Compound 18] |  | 72.3 ± 3.1 | 47.8 ± 0.9 |  |  |  |  |  |  |  |  |
| COc1cccc(-n2[se]c3ccccc3c2=O)c1 [Compound 8] | 52.6 ± 1.4 | 59.9 ± 4.8 |  |  |  |  |  |  |  |  |  |
